Experimental data taken from US20190381086A1, “INHIBITION OF NEDDYLATION USING GLYCYL-tRNA SYNTHETASE INHIBITORS” (The Scripps Research Institute, priority 2015, published 2019).
pIC50: −log10 of the molar value.

What was measured:
[1] = system: OVCAR-3
[2] = system: HOP-92; assay type: cell-based; settings: HOP-92, Non-Small Cell Lung Cancer
[3] = system: ACHN; assay: NCI 60 Cell One-Dose Screen; assay type: cell-based, human; settings: Renal Cancer, single dose 10^-5 M
[4] = system: NCI/ADR-RES; assay type: cell-based; settings: Ovarian Cancer
[5] = system: BT-549; assay: NCI 60 Cell One-Dose Screen; assay type: cell-based, human; settings: BT-549, Breast Cancer; single dose 10^-5 M
[6] = system: SK-OV-3; assay: NCI 60 Cell One-Dose Screen; assay type: cell-based, human; settings: SK-OV-3, Ovarian Cancer; single dose 10^-5 M
[7] = system: BT-549; assay type: cell-based; settings: BT-549, Breast Cancer
[8] = system: UO-31; assay: NCI 60 Cell One-Dose Screen; assay type: cell-based, human; settings: UO-31, Renal Cancer; single dose 10^-5 M
[9] = system: SK-MEL-5; assay type: cell-based; settings: SK-MEL-5, Melanoma
[10] = system: HCC-2998; assay: NCI 60 Cell One-Dose Screen; assay type: cell-based, human; settings: HCC-2998, Colon Cancer; single dose 10^-5 M
[11] = system: M14; assay type: cell-based; settings: M14, Melanoma
[12] = system: HCT-116; assay: NCI 60 Cell One-Dose Screen; assay type: cell-based, human; settings: HCT-116, Colon Cancer; single dose 10^-5 M
[13] = system: CCRF-CEM; assay: NCI 60 Cell One-Dose Screen; assay type: cell-based, human; settings: Leukemia, single dose 10^-5 M
[14] = system: KM12; assay type: cell-based; settings: KM12, Colon Cancer
[15] = system: MOLT-4; assay: NCI 60 Cell One-Dose Screen; assay type: cell-based, human; settings: MOLT-4, Leukemia; single dose 10^-5 M
[16] = system: MDA-MB-435; assay type: cell-based; settings: MDA-MB-435, Melanoma
[17] = system: IGROV1; assay: NCI 60 Cell One-Dose Screen; assay type: cell-based, human; settings: IGROV1, Ovarian Cancer; single dose 10^-5 M
[18] = system: HL-60(TB); assay type: cell-based
[19] = system: HS 578T; assay type: cell-based; settings: Breast Cancer
[20] = system: KM12; assay: NCI 60 Cell One-Dose Screen; assay type: cell-based, human; settings: KM12, Colon Cancer; single dose 10^-5 M
[21] = system: SW-620; assay: NCI 60 Cell One-Dose Screen; assay type: cell-based, human; settings: SW-620, Colon Cancer; single dose 10^-5 M
[22] = target: S. aureus GlyRS (UniProt Q2FY08); settings: read-out: IC50 (the inhibitor concentration at which GlyRS activity is reduced by half); cited from earlier work
[23] = system: LOX IMVI; assay type: cell-based; settings: Melanoma
[24] = system: EKVX; assay: NCI 60 Cell One-Dose Screen; assay type: cell-based, human; settings: Non-Small Cell Lung Cancer, single dose 10^-5 M
[25] = system: OVCAR-5; assay type: cell-based; settings: OVCAR-5, Ovarian Cancer
[26] = system: SK-MEL-28; assay: NCI 60 Cell One-Dose Screen; assay type: cell-based, human; settings: SK-MEL-28, Melanoma; single dose 10^-5 M
[27] = system: CAKI-1; assay: NCI 60 Cell One-Dose Screen; assay type: cell-based, human; settings: CAKI-1, Renal Cancer; single dose 10^-5 M
[28] = system: A549/ATCC; assay: NCI 60 Cell One-Dose Screen; assay type: cell-based, human; settings: Non-Small Cell Lung Cancer, single dose 10^-5 M
[29] = system: SNB-19; assay type: cell-based; settings: SNB-19, CNS Cancer
[30] = system: SF-268; assay: NCI 60 Cell One-Dose Screen; assay type: cell-based, human; settings: SF-268, CNS Cancer; single dose 10^-5 M
[31] = system: DU-145; assay type: cell-based; settings: DU-145, Prostate Cancer
[32] = system: T-47D; assay: NCI 60 Cell One-Dose Screen; assay type: cell-based, human; settings: Breast Cancer, single dose 10^-5 M
[33] = system: NCI-H460; assay type: cell-based; settings: NCI-H460, Non-Small Cell Lung Cancer
[34] = system: HCT-15; assay: NCI 60 Cell One-Dose Screen; assay type: cell-based, human; settings: HCT-15, Colon Cancer; single dose 10^-5 M
[35] = Homo sapiens, read-out: LC50 (the source's name)

## NCC(=O)NS(=O)(=O)OC[C@H]1O[C@@H](n2cnc3c(N)ncnc32)[C@H](O)[C@@H]1O [GlySA, glycylsulfamoyladenosine]
[1]; Homo sapiens, OVCAR-3
  GI50: 2 µM
[1]; Homo sapiens, OVCAR-3, read-out: LC50 (μM)
  CC50: 10 µM
[1]; OVCAR-3, Ovarian Cancer
  LC50/GI50: 5.0
[2]
  LC50/GI50: 9.3
[2]; Homo sapiens
  GI50: 2.95 µM
[2]; [35]
  CC50: 27.5 µM
[3]
  Growth inhibition count (%): 11.79%
[4]; Homo sapiens
  GI50: 2.51 µM
[4]; [35]
  CC50: > 100 µM
[4]
  LC50/GI50: >39.8
[5]
  Growth inhibition count (%): 21.06%
[6]
  Growth inhibition count (%): 6.281%
[7]
  LC50/GI50: 10.7
[7]; Homo sapiens
  GI50: 2.34 µM
[8]
  Growth inhibition count (%): 6.084%
[9]; Homo sapiens
  GI50: 1.86 µM
[9]
  LC50/GI50: 3.2
[10]
  Growth inhibition count (%): 41.35%
[11]; Homo sapiens
  GI50: 1.82 µM
[11]; [35]
  CC50: 7.24 µM
[11]
  LC50/GI50: 4.0
[12]
  Growth inhibition count (%): 6.566%
[13]
  Growth inhibition count (%): 21.68%
[14]; Homo sapiens
  GI50: 3.24 µM
[14]
  LC50/GI50: >30.9
[15]
  Growth inhibition count (%): 1.146%
[16]; Homo sapiens
  GI50: 1.82 µM
[16]
  LC50/GI50: 3.6
[17]
  Growth inhibition count (%): 11.7%
[18]; HL-60(TB), Leukemia
  LC50/GI50: >36.3
[18]; Homo sapiens, HL-60
  GI50: 2.75 µM
[19]
  LC50/GI50: >34.7
[19]; Homo sapiens
  GI50: 2.88 µM
[19]; [35]
  CC50: > 100 µM
[20]
  Growth inhibition count (%): 0.7347%
[21]
  Growth inhibition count (%): 3.712%
[22]
  pIC50: ~2.62
[23]; Homo sapiens
  GI50: 1.7 µM
[23]; [35]
  CC50: 7.41 µM
[23]
  LC50/GI50: 4.4
[24]
  Growth inhibition count (%): 44.07%
[25]; Homo sapiens
  GI50: 0.741 µM
[25]; [35]
  CC50: > 100 µM
[25]
  LC50/GI50: >134.9
[26]
  Growth inhibition count (%): 8.357%
[27]
  Growth inhibition count (%): 5.11%
[28]
  Growth inhibition count (%): 9.701%
[29]; Homo sapiens
  GI50: 0.38 µM
[29]; [35]
  CC50: 6.92 µM
[29]
  LC50/GI50: 18.2
[30]
  Growth inhibition count (%): 3.776%
[31]
  LC50/GI50: >144.5
[31]; Homo sapiens
  GI50: 0.692 µM
[32]
  Growth inhibition count (%): 7.656%
[33]; Homo sapiens
  GI50: 3.24 µM
[33]; [35]
  CC50: > 100 µM
[33]
  LC50/GI50: >30.9
[34]
  Growth inhibition count (%): 11.42%
